Measured values from patent publication US20130303575A1, “ADMINISTRATION OF AN INHIBITOR OF HDAC” (priority 2007, published 2013).
“Also recorded” adds a separate entry of the source. Like-named read-outs stand apart in the source and are kept apart here.

Experiments:
[1] = Tolerability, DLT and MTD in patients with refractory solid tumors or lymphoma (Example 1); assay type: in vivo
Procedure: Tolerability was assessed by scheduled clinical assessments. Adverse events (AEs) were assessed using the National Cancer Institute Common Toxicity Criteria (CTC) version 2.0. […] MTD was defined as the highest dose at which no more than 1 of 6 patients experienced DLT during the first treatment cycle.

[2] = system: refractory solid tumors or lymphomas; assay: Tumor response by Response Evaluation Criteria on Solid Tumors (Example 1); assay type: in vivo, human
Procedure: Tumor response was assessed every 6 weeks on the biweekly schedule (Schedule A) and every 8 weeks on the twice-weekly (Schedule B) and weekly (Schedule C) schedules, using appropriate imaging studies. Tumor responses were defined by the Response Evaluation Criteria on Solid Tumors.

[3] = system: Histone H3 and H4 acetylation; assay: Histone H3 and H4 acetylation in PBMCs by immunohistochemical detection (Example 1); assay type: in vivo, human; details: compared with pretreatment, preliminary analyses
Procedure: Histone H3 and H4 acetylation was analyzed in peripheral blood mononuclear cells (PBMCs) by immunohistochemical detection.

[4] = Plasma pharmacokinetics of oral SNDX-275 in patients with advanced and refractory solid tumors or lymphoma (Example 2); assay type: in vivo; details: human; for Cmax / AUC / Tmax / half-life: plasma, oral
Procedure: The initial dosing schedule was daily oral administration for 28 days and 14-day recovery period, constituting a 42-day cycle. […] Samples were immediately centrifuged at 3000 g for 10 minutes at 4° C. and then plasma was divided into two aliquots of at least 1 mL and frozen at −70° C. until the time of analysis. Plasma samples were assayed by a specific and sensitive high-performance liquid chromatographic assay with mass-spectrometric detection. […] The pharmacokinetic parameters of interest included peak plasma concentration (Cmax), time to peak concentration (Tmax), area under the plasma concentration versus time curve extrapolated to infinity (AUC), apparent oral clearance (CL/F), and the terminal half-life (T1/2, z). The peak plasma concentrations (Cmax) and the time to peak plasma concentrations (Tmax) were the observed values. The area under the plasma concentration versus time curve (AUC) was calculated using the linear trapezoidal method from time zero to the time of the final quantifiable concentration (AUCtf). The AUC was then extrapolated to infinity (AUCinf) by dividing the last measured concentration by the rate constant of the terminal phase (k), which was determined by linear-regression analysis of the final three or four time points of the ling-linear concentration time plot. […] Deviations of β from 1 correspond to deviations from ideal dose proportionality. […] All PK data are presented as mean±SD, except where otherwise indicated. […] One-way analysis of variance was performed to compare mean values using a two-sided Dunnett's test. Statistical calculations were performed using the Number Cruncher Statistical System 2001 series (J. L. Hintze, Kaysville, Utah). The cut-off for statistical significance was considered at P<0.05.

[5] = system: acetylated histone H3; assay: Immunocytochemical analysis of acetylated histone H3 in PBMCs (Example 2); assay type: in vivo, human
Procedure: Louis, Mo.) for 10 minutes at room temperature, rinsed quickly with water, air-dried, mounted using SlowFade (Molecular Probes), and imaged using a Zeiss Axiophot microscope interfaced with a CCD camera (Optronics Engineering, Goleta, Calif.). Positive controls were prepared by exposing healthy donor PBMCs to SNDX-275 in vitro. Buffy coats, provided anonymously as a byproduct of whole-blood donations from paid, healthy volunteer donors through an international review board-approved protocol, were centrifuged on Ficoll-Paque Plus. […] Cells were processed for histone hyperacetylation in the same manner as patient samples. Images of PBMCs stained for acetylated histone H3 were imported into the Openlab image analysis program (Improvision, Coventry, United Kingdom) and histone acetylation levels were assessed using the Openlab quantification software.

[6] = system: advanced acute leukemias; assay: Clinical outcome and biologic effects in adults with advanced acute leukemias (Example 3); assay type: in vivo, human
Procedure: To assess response to therapy, a BM aspiration was performed weekly for 4 weeks during the first cycle, at the end of each subsequent cycle, or at any time leukemia regrowth was suspected. Complete response (CR) required a normal BM aspirate with absence of identifiable leukemia, absolute neutrophils count (ANC) of 1×10^9/L or higher, platelet count of 100×10^9/L or higher, and absence of blasts in peripheral blood (PB). […] Progressive disease (PD) was defined as >50% increase in marrow or PB blasts from baseline or development of extramedullary leukemia.

For Nc1ccccc1NC(=O)c1ccc(CNC(=O)OCc2cccnc2)cc1 [SNDX-275, N-(2-aminophenyl) 4-[N-(pyrid-3-yl)methyloxycarbonylaminomethyl]benzamide], the “maximum tolerated dose (MTD)” value ([1]; Schedule A, 2-6 mg/m^2 biweekly) was “not reached”, the “drug-related grade 4 adverse events” value ([1]; human, in vivo) was “No drug-related grade 4 (gr4) adverse events (AEs) were reported” and the “patients with stable disease” value ([2]; all schedules) was 7. The “patients with partial response” value ([2]; melanoma, Schedule A) was “One”, the “time on SNDX-275 of the patient with partial response” value ([2]; one melanoma patient) was no less than 22 months and the “duration of stable disease” value ([2]; one patient with Ewing's sarcoma, Schedule A) was no less than 60 weeks. The “duration of stable disease” value ([2]; one patient with melanoma, Schedule B) was no less than 20 weeks, the “duration of stable disease” value ([2]; one patient with rectal carcinoma, Schedule A) was no less than 38 weeks and the “histone H3 and H4 acetylation in PBMCs” value [3] was “increase in histone H3 and H4 acetylation”. For the same compound, the “interpatient variability in clearance, comparison for body-surface area correction” value ([4]; in vivo) was 39.5%, the Cmax ([4]; 2 mg/m2, 2 mg/m^2, q14-day, first dose, fed, 3 patients) was 1.72 ng/mL and the AUC ([4]; 2 mg/m2, 2 mg/m^2, q14-day, first dose, fed, 3 patients, read-out: AUC Mean) was 196 ng·h/mL. It also gave a Tmax ([4]; 2 mg/m2, 2 mg/m^2, q14-day, first dose, fed, 3 patients, read-out: Tmax Median) of 6 h, a half-life ([4]; 2 mg/m2, 2 mg/m^2, q14-day, first dose, fed, 3 patients, read-out: t1/2 Mean (converted)) of 80.2 h and a Cmax ([4]; 4 mg/m2, 4 mg/m^2, q14-day, first dose, fed, 3 patients) of 4.84 ng/mL. It also gave an AUC ([4]; 4 mg/m2, 4 mg/m^2, q14-day, first dose, fed, 3 patients, read-out: AUC Mean) of 392 ng·h/mL, a Tmax ([4]; 4 mg/m2, 4 mg/m^2, q14-day, first dose, fed, 3 patients, read-out: Tmax Median) of 6 h and a half-life ([4]; 4 mg/m2, 4 mg/m^2, q14-day, first dose, fed, 3 patients, read-out: t1/2 Mean (converted)) of 50.5 h. It also gave a Cmax ([4]; 6 mg/m2, 6 mg/m^2, q14-day, first dose, fed, 6 patients) of 9.59 ng/mL, an AUC ([4]; 6 mg/m2, 6 mg/m^2, q14-day, first dose, fed, 6 patients, read-out: AUC Mean) of 493 ng·h/mL and a Tmax ([4]; 6 mg/m2, 6 mg/m^2, q14-day, first dose, fed, 6 patients, read-out: Tmax Median) of 2 h. For the same compound, the half-life ([4]; 6 mg/m2, 6 mg/m^2, q14-day, first dose, fed, 6 patients, read-out: t1/2 Mean (converted)) was 52.8 h, the Cmax ([4]; 8 mg/m2, 8 mg/m^2, q14-day, first dose, fed, 5 patients) was 15.5 ng/mL and the AUC ([4]; 8 mg/m2, 8 mg/m^2, q14-day, first dose, fed, 5 patients, read-out: AUC Mean) was 358 ng·h/mL. It also gave a Tmax ([4]; 8 mg/m2, 8 mg/m^2, q14-day, first dose, fed, 5 patients, read-out: Tmax Median) of 2 h, a half-life ([4]; 8 mg/m2, 8 mg/m^2, q14-day, first dose, fed, 5 patients, read-out: t1/2 Mean (converted)) of 39.7 h and a Cmax ([4]; 10 mg/m2, 10 mg/m^2, q14-day, first dose, fed, 6 patients) of 45.1 ng/mL. For the same compound, the AUC ([4]; 10 mg/m2, 10 mg/m^2, q14-day, first dose, fed, 6 patients, read-out: AUC Mean) was 529 ng·h/mL, the Tmax ([4]; 10 mg/m2, 10 mg/m^2, q14-day, first dose, fed, 6 patients, read-out: Tmax Median) was 1.5 h and the half-life ([4]; 10 mg/m2, 10 mg/m^2, q14-day, first dose, fed, 6 patients, read-out: t1/2 Mean (converted)) was 51.6 h. For the same compound, the Cmax ([4]; 12 mg/m2, 12 mg/m^2, q14-day, first dose, fed, 4 patients) was 132 ng/mL, the AUC ([4]; 12 mg/m2, 12 mg/m^2, q14-day, first dose, fed, 4 patients, read-out: AUC Mean) was 680 ng·h/mL and the Tmax ([4]; 12 mg/m2, 12 mg/m^2, q14-day, first dose, fed, 4 patients, read-out: Tmax Median) was 0.5 h. It also gave a half-life ([4]; 12 mg/m2, 12 mg/m^2, q14-day, first dose, fed, 4 patients, read-out: t1/2 Mean (converted)) of 45 h, a Tmax ([4]; all doses 2 to 12 mg/m^2, q14-day, read-out: Tmax Grand median) of 1.75 h and a half-life ([4]; all doses 2 to 12 mg/m^2, q14-day, read-out: t1/2 Grand mean (apparent terminal half-life) (converted)) of 51.7 ± 21.6 h. For the same compound, the half-life ([4]; bi-exponential decline, read-out: T1/2 in plasma (converted)) was roughly 50 h, the half-life ([4]; half-life of SNDX-275 in humans, preliminary PK analysis) was 39 to 80 h and the Tmax ([4]; in some patients, read-out: earliest Tmax observed (converted)) was 0.5 h. For the same compound, the AUC ([4]; n=4, FIG. 6, read-out: mean AUC in patients experiencing DLTs) was 517 ± 276 ng·h/mL, the AUC ([4]; n=23, FIG. 6, read-out: mean AUC in patients without DLT) was 280 ± 121 ng·h/mL and the Tmax ([4]; q14-day schedule, read-out: median Tmax) was roughly 2 h. The “histone H3 acetylation in peripheral-blood mononuclear-cells” value ([5]; apparent at all dose levels, immunofluoresence analysis) was “Increased histone H3 acetylation”, the “histone H3 and H4 acetylation (HDAC inhibition)” value ([5]; daily schedule patients) was “HDAC inhibition occurred after one dose” and the “CR or PR by standard criteria” value ([6]; 34 patients evaluable for response) was “No patients achieved CR or PR”. For the same compound, the “patients with a 50% reduction in WBC counts” value ([6]; Fifteen patients) was 38.5%, the “Type of Response” value ([6]; patient 2, 4 mg/m^2 × 2/4 weeks, 4 cycles, bone marrow blast response) was “Bone marrow PR (>50% → 12% blasts, cycle 1)” and the “Type of Response” value ([6]; patient 2, 4 mg/m^2 × 2/4 weeks, 4 cycles, myeloid differentiation by ANC) was “Differentiation in myeloid lineage (ANC 504/μL →”. For the same compound, the ANCmax ([6]; patient 2, 4 mg/m^2 × 2/4 weeks, cycle 1, from ANC 504/μL) was “ANCmax 1410/μL, cycle 1)”, the “Type of Response” value ([6]; patient 5, 4 mg/m^2 × 2/4 weeks (cycle 1), 6 mg/m^2 × 2/4 weeks (cycle 2 and 3), 3 cycles) was “Stable disease” and the “Type of Response” value ([6]; patient 11, 8 mg/m^2 × 2/4 weeks, 1 cycle) was “Decreased transfusion requirements”. The “Type of Response” value ([6]; patient 14, 8 mg/m^2 × 4/6 weeks, 1 cycle) was “Resolution of bone pain”, the “Type of Response” value ([6]; patient 15, 8 mg/m^2 × 4/6 weeks, 1.75 cycles, bone marrow blast response) was “Bone marrow PR (35% → 14% blasts, cycle 1)” and the “Type of Response” value ([6]; patient 15, 8 mg/m^2 × 4/6 weeks, 1.75 cycles, myeloid differentiation by ANC) was “Differentiation in myeloid lineage (ANC 288/μL →”. The ANCmax ([6]; patient 15, 8 mg/m^2 × 4/6 weeks, cycle 1, from ANC 288/μL) was 2052 µL⁻¹, the ANCmax ([6]; patient 15, 8 mg/m^2 × 4/6 weeks, cycle 2) was 5546 µL⁻¹ and the “Type of Response” value ([6]; patient 18, 8 mg/m^2 × 4/6 weeks, 1.25 cycles) was “Differentiation in myeloid lineage (ANC 124/μL →”. For the same compound, the ANCmax ([6]; patient 18, 8 mg/m^2 × 4/6 weeks, cycle 1, from ANC 124/μL) was “ANCmax 680/μL, cycle 1)”, the “Type of Response” value ([6]; patient 20, 8 mg/m^2 × 4/6 weeks, 1 cycle) was “Decreased transfusion requirements” and the “Type of Response” value ([6]; patient 24, 8 mg/m^2 × 4/6 weeks, 4.75 cycles, bone marrow blast response) was “Bone marrow PR (30% → 20% blasts, cycle 1)”. The “Type of Response” value ([6]; patient 24, 8 mg/m^2 × 4/6 weeks, 4.75 cycles, myeloid differentiation by ANC) was “Differentiation in myeloid lineage (ANC 520/μL →”, the ANCmax ([6]; patient 24, 8 mg/m^2 × 4/6 weeks, cycle 1, from ANC 520/μL) was 3637 µL⁻¹ and the ANCmax ([6]; patient 24, 8 mg/m^2 × 4/6 weeks, cycle 3) was 4456 µL⁻¹. For the same compound, the “Type of Response” value ([6]; patient 27, 8 mg/m^2 × 4/6 weeks, 5 cycles) was “Stable disease; also recorded: Peripheral blood 21% → 0% blasts”, the “Type of Response” value ([6]; patient 33, 10 mg/m^2 × 4/6 weeks, 2 cycles) was “Resolution of extramedullary chloroma” and the “Type of Response” value ([6]; patient 34, 10 mg/m^2 × 4/6 weeks, 2 cycles, bone marrow blast response) was “Bone marrow CR (54% → 3% blasts, cycle 1)”. The “Type of Response” value ([6]; patient 34, 10 mg/m^2 × 4/6 weeks, 2 cycles, myeloid differentiation by ANC) was “Differentiation in myeloid lineage (ANC 103/μL →”, the ANCmax ([6]; patient 34, 10 mg/m^2 × 4/6 weeks, cycle 1, from ANC 103/μL) was 854 µL⁻¹ and the ANCmax ([6]; patient 34, 10 mg/m^2 × 4/6 weeks, cycle 2) was 2929 µL⁻¹. The “median time to 50% reduction in WBC counts” value ([6]; range 3-28) was 6 days.
